Laboratory results: patent publication US12104188B2, “Modified caspase-9 polypeptides and methods of use thereof” (Allogene Therapeutics, Inc., priority 2017, dated 2024)

Tests used:
[1] = humans; Iuliucci J D, et al., 2001; cited from earlier work
[2] = biological target: FKBP12 polypeptide with the F36V mutation (Homo sapiens, UniProt P62942, F37V); conditions: cited from earlier work
primary T cells = test: Induction of apoptosis in T cells containing chimeric caspase 9 proteins: % live GFP positive cells by flow cytometry, with or without AP1903; assay type: cell-based, human; conditions: for % GFP, AP1903 / % GFP, 0 mM AP1903: % GFP positive cells, 4 days after AP1903
Method: Primary T cells were prepared from each of four different human blood donors (“Donor 1”, “Donor 2”, “Donor 3” and “Donor 8”) as follows.
Previously-frozen primary T cells were thawed and activated with ImmunoCult Human CD3/CD28 T cell activator (StemCell, Cat #10971). 48 hours later, a lentiviral vector which contains a polynucleotide encoding a chimeric caspase 9 protein as described above was added to the activated primary T cells for transduction. Different lentiviral vectors were added to different samples of the primary T cells to test the activity of the different chimeric caspase 9 proteins. The respective lentiviral vectors were provided to the T cells in filtered supernatant from the HEK293T cells. T cells transduced with a polynucleotide encoding a chimeric caspase 9 protein subsequently expressed the respective chimeric caspase 9 protein.
T cells containing different chimeric caspase 9 proteins prepared as described in part A above were assayed for apoptosis in response to the dimeric ligand AP1903.
[…] On the 3rd or 4th day, the cells were measured by flow cytometry to determine the percentage of live cells that are GFP positive (+). (GFP is a marker for the chimeric caspase 9 protein.) Thus, it can be extrapolated that the greater the % of live GFP+ cells, the lower the apoptotic activity of the respective chimeric caspase 9 protein in this assay.

[3] = tested on: primary T cells from Donor #8; test: Example 2: induction of apoptosis in Donor #8 T cells comprising chimeric caspase-9 proteins with or without a CAR, in response to AP1903; assay type: cell-based, human; conditions: Day 1 post-AP1903, Donor #8 primary T cells, FIG. 6
Method: T cells derived from donor #8 comprising various different chimeric caspase 9 proteins, some of which further comprise a CAR were prepared as described in part 1A above and were assayed for expression of chimeric caspase-9 and for induced apoptosis in response to the dimeric ligand AP1903.
For each assay, about 1,000,000 cells containing a particular chimeric caspase 9 protein were incubated with or without 10 nM AP1903 for 3 or 4 days. On days 1, 2 and 3 post-AP1903 (FIGS. 6, 7, and 8, respectively), the cells were measured by flow cytometry to determine the percentage of live cells that are GFP positive (+) (GFP is a marker for the chimeric caspase 9 protein). Thus, it can be extrapolated that the greater the % of live GFP+ cells, the lower the apoptotic activity of the respective chimeric caspase 9 protein in this assay.
In FIGS. 6-9, for each different chimeric caspase-9 protein, expressed with or without a CAR, there are two adjacent bars. The left-side bar is for the cells incubated without AP1903, and the right-side bar is for the corresponding cells incubated with AP1903. […] This observation is consistent with the application of the D330M-D379E construct as a fast-acting “safety switch” for CAR-T therapies.

[4] = Table 3, Donor # 1, primary T cells
[5] = Table 4, Donor # 2, primary T cells
[6] = Table 5, Donor # 1, primary T cells
[7] = Table 6, Donor # 1, primary T cells
[8] = Table 7, Donor # 3, primary T cells

FKBP12 polypeptide with the F36V mutation, sequence (P62942 whole entry F37V): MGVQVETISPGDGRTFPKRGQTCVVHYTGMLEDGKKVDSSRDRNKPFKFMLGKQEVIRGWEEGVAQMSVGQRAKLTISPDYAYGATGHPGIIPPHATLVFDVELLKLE

Compound | well-tolerated dose [1] | affinity for FKBP12 with the F36V mutation compared with wild-type FKBP12 [2] | affinity of FKBP12 containing the F36V mutation for AP1903 [2] | % GFP, AP1903 (primary T cells; [4]) | % GFP, 0 mM AP1903 (primary T cells; [4]) | % GFP, AP1903 (primary T cells; [5]) | % GFP, 0 mM AP1903 (primary T cells; [5]) | % GFP, AP1903 (primary T cells; [6]) | % GFP, 0 mM AP1903 (primary T cells; [6]) | % GFP, AP1903 (primary T cells; [7]) | % GFP, 0 mM AP1903 (primary T cells; [7]) | % GFP, AP1903 (primary T cells; [8]) | % GFP, 0 mM AP1903 (primary T cells; [8]) | activity profile (high % GFP+ without AP1903, large difference with AP1903) (primary T cells; assessment of Tables 3-7) | speed of induced apoptosis relative to the N405Q construct [3]
CC[C@H](C(=O)N1CCCC[C@H]1C(=O)O[C@H](CCc1ccc(OC)c(OC)c1)c1cccc(OCC(=O)NCCNC(=O)COc2cccc([C@@H](CCc3ccc(OC)c(OC)c3)OC(=O)[C@@H]3CCCCN3C(=O)[C@@H](CC)c3cc(OC)c(OC)c(OC)c3)c2)c1)c1cc(OC)c(OC)c(OC)c1 (relative stereo) [AP1903, 2-Piperidinecarboxylic acid, 1-[(2S)-1-oxo-2-(3,4,5-trimethoxyphenyl)butyl]-, 1,2 ethanediylbis[imino(2-oxo-2,1-ethanediyl)oxy-3,1-phenylene[(1R)-3-(3,-4-dimethoxyphenyl)propylidene]]ester, [2S [1(R*),2R*[S*[S*[1(R*),2R*]]]]]-(9Cl)] | at least 1 mg/kg | much greater affinity | high affinity | – | – | – | – | – | – | – | – | – | – | – | –
D330M-D379E: chimeric caspase 9 protein (SEQ ID NO: 6): FKBP12 F36V dimerization domain, linker, caspase-9 polypeptide without CARD, D330M-D379E double mutation | – | – | – | 7% | 72% | 2% | 35% | 6.95% | 72.3% | 5.04% | 53.4% | 7% | 71% | attractive activity profiles | approximately 3 fold
